Measured values published in patent US8354447B2, “mGLU receptors antagonists for treating disorders associated with mGLU receptors including addiction and depression” (The Scripps Research Institute, priority 2002, dated 2013).
Where a name gives a salt, the structure may show the parent alone.

What was measured:
male Wistar rats [1] = test: Brain stimulation reward (ICSS) under baseline conditions, paroxetine and p-MPPI; type: in vivo, rat
Procedure: Male Wistar rats (Charles River, Hollister, Calif.) (300-320 g at the start of the experiments) were housed in pairs in a temperature and humidity controlled environment with a 12 hr light/dark cycle. Food and water were available ad libitum. A different set of subjects was used for each experiment. All subjects were treated in accordance with the National Institutes of Health “Guide for the Care and Use of Laboratory Animals,” and the animal facilities and the experimental protocols were in accordance with the Association for the Assessment and Accreditation of Laboratory Animal Care. Most of the behavioral testing was conducted during the light phase of the subjects' light/dark cycle, unless otherwise dictated by the experimental design due to time-course assessment of behavioral parameters. Apparatus The experimental apparatus consisted of 16 Plexiglas chambers (30.5×30×17 cm) (Med Associates Inc., St. Albans, Vt.) encased in sound-attenuating boxes (San Diego Instruments, San Diego, Calif.). Each operant chamber consisted of a stainless steel grid floor and a metal wheel manipulandum located on one wall, which required a 0.2 N force to rotate it a quarter turn. Gold-contact swivel commutators and bipolar leads connected the animals in the stimulation circuit (Plastics One, Roanoke, Va.). Brain stimulation was administered by constant current stimulators (Stimtek 1200, San Diego Instruments, San Diego, Calif.). […] During a 2 sec period immediately following a positive response, further responses were recorded as extra responses but had no consequence. If no response occurred during the 7.5 sec limited hold period a negative response was recorded. […] Thus, during each session, four current-thresholds were recorded and the mean of these values was taken as the current-threshold for each subject for each test session. Response Latency: The latency between the onset of the non-contingent stimulus and a positive response was recorded as the response latency. […]

male Wistar rats [2] = test: Reward deficits during amphetamine withdrawal (ICSS thresholds, response latencies, body weight); details: for response latencies during withdrawal: 36 hr after the final amphetamine or saline injection; for return to baseline reward threshold levels before the amphetamine-withdrawing non-drug-treated rats: acute treatment prior to the 36 hr test, paroxetine 1.25 mg/kg, p-MPPI 3 mg/kg; for body weight during amphetamine withdrawal: amphetamine-exposed rats; for reward thresholds: saline-exposed animals, paroxetine 1.25 mg/kg or p-MPPI 3 mg/kg
Procedure: Male Wistar rats (Charles River, Hollister, Calif.) (300-320 g at the start of the experiments) were housed in pairs in a temperature and humidity controlled environment with a 12 hr light/dark cycle. Food and water were available ad libitum. A different set of subjects was used for each experiment. All subjects were treated in accordance with the National Institutes of Health “Guide for the Care and Use of Laboratory Animals,” and the animal facilities and the experimental protocols were in accordance with the Association for the Assessment and Accreditation of Laboratory Animal Care. Most of the behavioral testing was conducted during the light phase of the subjects' light/dark cycle, unless otherwise dictated by the experimental design due to time-course assessment of behavioral parameters. Apparatus The experimental apparatus consisted of 16 Plexiglas chambers (30.5×30×17 cm) (Med Associates Inc., St. Albans, Vt.) encased in sound-attenuating boxes (San Diego Instruments, San Diego, Calif.). Each operant chamber consisted of a stainless steel grid floor and a metal wheel manipulandum located on one wall, which required a 0.2 N force to rotate it a quarter turn. Gold-contact swivel commutators and bipolar leads connected the animals in the stimulation circuit (Plastics One, Roanoke, Va.). Brain stimulation was administered by constant current stimulators (Stimtek 1200, San Diego Instruments, San Diego, Calif.). Surgical Procedure The rats were prepared with 11 mm stainless steel bipolar electrodes (Plastics One; diameter=0.25 mm) in the posterior lateral hypothalamus (AP −0.5 mm from bregma; L±1.7 mm; DV −8.3 mm from dura, with the incisor bar set at 5 mm above the interaural line; Pellegrino et al. 1979 under halothane anaesthesia (1-1.5% halothane/oxygen mixture). Subjects were allowed to recover for at least seven days before any behavioral testing. Half of the electrodes were positioned on the right hemisphere and the other half on the left hemisphere to counterbalance possible brain asymmetries. […] The subjects were initially trained to turn the wheel manipulandum on a fixed ratio 1 schedule of reinforcement. […] The current intensity delivered was adjusted for each animal and typically ranged from 100 to 200 μA. After successful familiarization with this procedure (2 sessions of 100 reinforcers in less than 20 minutes), the rats were gradually trained on a discrete-trial, current-threshold procedure. At the start of each trial rats received a non-contingent electrical stimulus. During the following 7.5 sec, the limited hold, if the subjects responded by turning the wheel manipulandum a quarter turn (positive response) they received a second, contingent stimulus identical to the previous non-contingent stimulus. During a 2 sec period immediately following a positive response, further responses were recorded as extra responses but had no consequence. If no response occurred during the 7.5 sec limited hold period a negative response was recorded. […] Stimulation intensities were varied according to the classical psychophysical method of limits. The subjects received four alternating series of ascending and descending current intensities starting with a descending series. Within each series the stimulus intensity was altered by 5 μA steps between each set of trials (three trials per set). After training in the above procedure, rats were tested until stable baseline thresholds had been achieved L+10% over a 5-day period). […] During the ascending series, the reverse situation defined the threshold. Thus, during each session, four current-thresholds were recorded and the mean of these values was taken as the current-threshold for each subject for each test session. Response Latency: The latency between the onset of the non-contingent stimulus and a positive response was recorded as the response latency. The response latency for each test session was defined as the mean response latency of all trials during which a positive response occurred. […]

[3] = Lemberger et al. 1985; Prakash and Foster 1999; cited from earlier work
rats = details: single high dose 120-300 mg/kg orally, rats (Ryan et al. 2001); cited from earlier work
male Wistar rats [4] = details: 5 mg/kg fluoxetine alone (Harrison et al. 2001); cited from earlier work

Compound | brain reward thresholds (male Wistar rats [1]; paroxetine 1.25-10 mg/kg, 120 min before test) | response latencies during withdrawal (male Wistar rats [2]) | return to baseline reward threshold levels before the amphetamine-withdrawing non-drug-treated rats (male Wistar rats [2]) [h] | body weight during amphetamine withdrawal (male Wistar rats [2]) | reward thresholds (male Wistar rats [2]) | half-life [3] | body weight and food consumption (rats) | reward thresholds (male Wistar rats [1]; p-MPPI 1, 3, 10 mg/kg alone) | response latencies (male Wistar rats [1]; p-MPPI 1-10 mg/kg (Example 4.2)) | duration of amphetamine withdrawal reward deficits (male Wistar rats [4])
Fc1ccc([C@@H]2CCNC[C@H]2COc2ccc3c(c2)OCO3)cc1 [paroxetine, Paroxetine hydrochloride] | had no statistically significant effect on thresholds | significantly slower than those of either vehicle or p-MPPI treated rats | 24 | did not gain weight during withdrawal | Neither paroxetine (FIG. 4A & 4D) nor p-MPPI (FIG. 20B and 20E) had an effect on thresholds of saline-exposed animals | approximately 24 hours | produces a reduction in body weight and food consumption | – | – | –
COc1ccccc1N1CCN(CCN(C(=O)c2ccc(I)cc2)c2ccccn2)CC1.Cl [p-MPPI] | – | had no effect on response latencies | 24 | appeared to gain weight similarly to vehicle-treated rats | Neither paroxetine (FIG. 4A & 4D) nor p-MPPI (FIG. 20B and 20E) had an effect on thresholds of saline-exposed animals | – | – | had no effect on reward thresholds | had no effect on response latencies | –
CNCCC(Oc1ccc(C(F)(F)F)cc1)c1ccccc1 (centres unmarked) [fluoxetine] | – | – | – | – | – | – | – | – | – | reduced the duration of the reward deficits
